According to publication PMC12122562, “Phase 1 studies of the indenoisoquinolines LMP776 and LMP744 in patients with solid tumors and lymphomas” (Cancer Chemotherapy and Pharmacology, 2025):
Values joined by “and” are separate entries in the source; they are usually repeats but may differ in a detail not shown here. Identical values can stand only once. “Also recorded” adds a separate entry of the source.

System: patients with advanced, refractory solid tumors or lymphomas
Test: Phase 1 trial of LMP744 (NCT03030417): safety, MTD, adverse events (CTCAE v4.03/v5.0)
Type: in vivo, human
Excerpt: The primary objectives of each study included establishing safety, tolerability, MTD, and recommended phase 2 dose (RP2D) of LMP776 and LMP744 as single agents. The LMP744 study included evaluation of tumor pharmacodynamics as an exploratory objective. Both trials were opened at the National Cancer Institute’s (NCI) Developmental Therapeutics Clinic, and the LMP744 trial was also opened at the University of Pittsburgh Hillman Cancer Center. Both trials used an accelerated dose escalation designs (Simon design 4 for LMP776, Simon design 3 for LMP744) to determine the MTD [30]. Dose levels are listed in Supplementary Table 1. Once the MTD was determined, additional patients were enrolled at that DL in an expansion cohort to evaluate pharmacodynamic changes as described below. LMP776 and LMP744 were administered intravenously through a central line via a 1-h infusion on days 1–5 (QDx5) in 28-day cycles. Both agents were supplied by the NCI Division of Cancer Treatment and Diagnosis (DCTD). The studies were approved by the NIH Institutional Review Board and conducted in accordance with the Declaration of Helsinki.
Patients were enrolled in either NCT01051635 evaluating LMP776 or NCT03030417 evaluating LMP744; these trials were conducted sequentially. Both trials required that patients be ≥ 18 years of age with solid tumors or lymphomas refractory to other treatments. Patients were required to have adequate performance status (Eastern Cooperative Oncology Group [ECOG] performance status ≤ 2), bone marrow function, and organ function as described in the Supplementary Methods. Patients in expansion phases at the MTD were required to have disease amenable to biopsy collection and be willing to undergo research biopsies. All patients provided written informed consent.
Tumor responses were evaluated by serial CT scans according to RECIST v1.1 criteria. CT scans were performed every other cycle during the first year, then every 3 cycles after the first year. Toxicities associated with LMP776 were evaluated according to criteria specified in CTCAE version 4.0; toxicities associated with LMP744 were evaluated according to the criteria specified in CTCAE version 4.03 (on or before March 31, 2018) or version 5.0 (on or after April 1, 2018). Criteria for all versions can be found at https://ctep.cancer.gov/protocolDevelopment/electronic_applications/ctc.htm. Any patient who received a dose of either agent was considered eligible for toxicity evaluation.

[1] = all DLs, highest grade per patient

SMILES: COc1cc2c3c(n(CCCNCCO)c(=O)c2cc1OC)-c1cc2c(cc1C3=O)OCO2 [LMP744]
- Grade 3 non-hematologic DLTs (DL7 (260 mg/m^2/day)): elevated ALT, AST, and GGT in one patient; also recorded: nausea, vomiting, and dehydration
- Maximum tolerated dose (MTD) (IV QDx5, 28-day cycles (DL6)): 190 mg/m^2/day
- Anemia, grade ≥ 2, prevalence (across all DLs): 36%
- Fatigue, grade ≥ 2, prevalence (across all DLs): 22%
- Lymphopenia, grade ≥ 2, prevalence (across all DLs): 39%
- Alanine aminotransferase increased, grade ≥ 2, Total (%) (all DLs): 2 (6)
- Alkaline phosphatase increased, grade ≥ 2, Total (%) (all DLs): 3 (9)
- Anorexia, grade ≥ 2, Total (%) (all DLs): 2 (6)
- Aspartate aminotransferase increased, grade ≥ 2, Total (%) (all DLs): 2 (6)
- Blood bilirubin increased, grade ≥ 2, Total (%) (all DLs): 2 (6)
- Constipation, grade ≥ 2, Total (%) (all DLs): 1 (3)
- Creatinine increased, grade ≥ 2, Total (%) (all DLs): 5 (14)
- Dehydration, grade ≥ 2, Total (%) (all DLs): 4 (11)
- Diarrhea, grade ≥ 2, Total (%) (all DLs): 1 (3)
- Dry skin, grade ≥ 2, Total (%) (all DLs): 1 (3)
- Edema - limbs, grade ≥ 2, Total (%) (all DLs): 1 (3)
- Febrile Neutropenia, grade ≥ 2, Total (%) (all DLs): 1 (3)
- GGT increased, grade ≥ 2, Total (%) (all DLs): 6 (17)
- Hyperglycemia, grade ≥ 2, Total (%) (all DLs): 1 (3)
- Hypoalbuminemia, grade ≥ 2, Total (%) (all DLs): 1 (3)
- Hypokalemia, grade ≥ 2, Total (%) (all DLs): 2 (6)
- Hypomagnesemia, grade ≥ 2, Total (%) (all DLs): 2 (6)
- Hyponatremia, grade ≥ 2, Total (%) (all DLs): 1 (3)
- Hypophosphatemia, grade ≥ 2, Total (%) (all DLs): 6 (17)
- Hypothyroidism, grade ≥ 2, Total (%) (all DLs): 1 (3)
- Hypoxia, grade ≥ 2, Total (%) (all DLs): 1 (3)
- INR increased, grade ≥ 2, Total (%) (all DLs): 1 (3)
- Infections and infestations - NOS, grade ≥ 2, Total (%) (all DLs): 2 (6)
- Infusion site extravasation, grade ≥ 2, Total (%) (all DLs): 1 (3)
- Leukopenia (White blood cell count decreased), grade ≥ 2, Total (%) (all DLs): 5 (14)
- Nausea, grade ≥ 2, Total (%) (all DLs): 6 (17)
- Neutropenia, grade ≥ 2, Total (%) (all DLs): 5 (14)
- Pain - biopsy site, grade ≥ 2, Total (%) (all DLs): 1 (3)
- Platelet count decreased, grade ≥ 2, Total (%) (all DLs): 2 (6)
- Proteinuria, grade ≥ 2, Total (%) (all DLs): 2 (6)
- Sudden death - NOS, Total (%) (all DLs): 1 (3)
- Thrombophlebitis - superficial, grade ≥ 2, Total (%) (all DLs): 1 (3)
- Urinary tract infection, grade ≥ 2, Total (%) (all DLs): 1 (3)
- Vomiting, grade ≥ 2, Total (%) (all DLs): 6 (17)
- Weight loss, grade ≥ 2, Total (%) (all DLs): 4 (11)
- White blood cell count increased, grade ≥ 2, Total (%) (all DLs): 1 (3)
- Anemia, grade ≥ 2, Total (%) [1]: 13 (37) and 13 (36)
- Fatigue, grade ≥ 2, Total (%) [1]: 8 (23) and 8 (22)
- Patients requiring dose reductions (enrolled at DL6 (n = 6) or DL7 (n = 5)): Eleven
- Alanine aminotransferase increased, patients (grade 2, DL1-DL5): 1
- Alkaline phosphatase increased, patients (grade 2, DL1-DL5): 1
- Anemia, patients (grade 2, DL1-DL5): 2
- Edema - limbs, patients (grade 2, DL1-DL5): 1
- GGT increased, patients (grade 2, DL1-DL5): 1
- Hypophosphatemia, patients (grade 2, DL1-DL5): 1
- Proteinuria, patients (grade 2, DL1-DL5): 1
- Vomiting, patients (grade 2, DL1-DL5): 1
- Lymphopenia (Lymphocyte count decreased), patients (grade 2, DL1-DL5 (n = 7)): 1
- Alanine aminotransferase increased, patients (grade 2, DL6): 1
- Alkaline phosphatase increased, patients (grade 2, DL6): 1
- Anemia, patients (grade 2, DL6): 4
- Anorexia, patients (grade 2, DL6): 1
- Aspartate aminotransferase increased, patients (grade 2, DL6): 1
- Blood bilirubin increased, patients (grade 2, DL6): 1
- Constipation, patients (grade 2, DL6): 1
- Creatinine increased, patients (grade 2, DL6): 3
- Dehydration, patients (grade 2, DL6): 1
- Diarrhea, patients (grade 2, DL6): 1
- Dry skin, patients (grade 2, DL6): 1
- Fatigue, patients (grade 2, DL6): 6
- GGT increased, patients (grade 2, DL6): 3
- Hyperglycemia, patients (grade 2, DL6): 1
- Hypoalbuminemia, patients (grade 2, DL6): 1
- Hypomagnesemia, patients (grade 2, DL6): 1
- Hyponatremia, patients (grade 2, DL6): 1
- Hypophosphatemia, patients (grade 2, DL6): 4
- Hypothyroidism, patients (grade 2, DL6): 1
- Infections and infestations - NOS, patients (grade 2, DL6): 2
- Infusion site extravasation, patients (grade 2, DL6): 1
- Leukopenia (White blood cell count decreased), patients (grade 2, DL6): 3
- Nausea, patients (grade 2, DL6): 3
- Neutropenia, patients (grade 2, DL6): 3
- Pain - biopsy site, patients (grade 2, DL6): 1
- Platelet count decreased, patients (grade 2, DL6): 1
- Proteinuria, patients (grade 2, DL6): 1
- Thrombophlebitis - superficial, patients (grade 2, DL6): 1
- Urinary tract infection, patients (grade 2, DL6): 1
- Vomiting, patients (grade 2, DL6): 4
- Weight loss, patients (grade 2, DL6): 4
- White blood cell count increased, patients (grade 2, DL6): 1
- Lymphopenia (Lymphocyte count decreased), patients (grade 2, DL6 (n = 18; suppl. n=17)): 1
- Alkaline phosphatase increased, patients (grade 2, DL7): 1
- Anemia, patients (grade 2, DL7): 7
- Anorexia, patients (grade 2, DL7): 1
- Blood bilirubin increased, patients (grade 2, DL7): 1
- Creatinine increased, patients (grade 2, DL7): 2
- Dehydration, patients (grade 2, DL7): 1
- Fatigue, patients (grade 2, DL7): 2
- Hypomagnesemia, patients (grade 2, DL7): 1
- Hypophosphatemia, patients (grade 2, DL7): 1
- INR increased, patients (grade 2, DL7): 1
- Leukopenia (White blood cell count decreased), patients (grade 2, DL7): 1
- Nausea, patients (grade 2, DL7): 1
- Platelet count decreased, patients (grade 2, DL7): 1
- Vomiting, patients (grade 2, DL7): 1
- Lymphopenia (Lymphocyte count decreased), patients (grade 2, DL7 (n = 11)): 4
- Alanine aminotransferase increased, patients (grade 2, all DLs (n=35)): 2
- Alkaline phosphatase increased, patients (grade 2, all DLs (n=35)): 3
- Anemia, patients (grade 2, all DLs (n=35)): 13
- Anorexia, patients (grade 2, all DLs (n=35)): 2
- Aspartate aminotransferase increased, patients (grade 2, all DLs (n=35)): 1
- Blood bilirubin increased, patients (grade 2, all DLs (n=35)): 2
- Constipation, patients (grade 2, all DLs (n=35)): 1
- Creatinine increased, patients (grade 2, all DLs (n=35)): 5
- Dehydration, patients (grade 2, all DLs (n=35)): 2
- Diarrhea, patients (grade 2, all DLs (n=35)): 1
- Dry skin, patients (grade 2, all DLs (n=35)): 1
- Edema - limbs, patients (grade 2, all DLs (n=35)): 1
- Fatigue, patients (grade 2, all DLs (n=35)): 8
- GGT increased, patients (grade 2, all DLs (n=35)): 4
- Hyperglycemia, patients (grade 2, all DLs (n=35)): 1
- Hypoalbuminemia, patients (grade 2, all DLs (n=35)): 1
- Hypomagnesemia, patients (grade 2, all DLs (n=35)): 2
- Hyponatremia, patients (grade 2, all DLs (n=35)): 1
- Hypophosphatemia, patients (grade 2, all DLs (n=35)): 6
- Hypothyroidism, patients (grade 2, all DLs (n=35)): 1
- INR increased, patients (grade 2, all DLs (n=35)): 1
- Infections and infestations - NOS, patients (grade 2, all DLs (n=35)): 2
- Infusion site extravasation, patients (grade 2, all DLs (n=35)): 1
- Lymphocyte count decreased, patients (grade 2, all DLs (n=35)): 6
- Nausea, patients (grade 2, all DLs (n=35)): 4
- Neutropenia, patients (grade 2, all DLs (n=35)): 3
- Platelet count decreased, patients (grade 2, all DLs (n=35)): 3
- Proteinuria, patients (grade 2, all DLs (n=35)): 2
- Thrombophlebitis - superficial, patients (grade 2, all DLs (n=35)): 1
- Urinary tract infection, patients (grade 2, all DLs (n=35)): 1
- Vomiting, patients (grade 2, all DLs (n=35)): 6
- Weight loss, patients (grade 2, all DLs (n=35)): 4
- White blood cell count decreased, patients (grade 2, all DLs (n=35)): 4
- White blood cell count increased, patients (grade 2, all DLs (n=35)): 1
- Dehydration, patients (grade 3, DL6): 1
- Febrile Neutropenia, patients (grade 3, DL6): 1
- GGT increased, patients (grade 3, DL6): 1
- Hypokalemia, patients (grade 3, DL6): 1
- Hypoxia, patients (grade 3, DL6): 1
- Lymphopenia (Lymphocyte count decreased), patients (grade 3, DL6): 5
- Nausea, patients (grade 3, DL6): 1
- Neutropenia, patients (grade 3, DL6): 1
- Aspartate aminotransferase increased, patients (grade 3, DL7): 1
- Dehydration, patients (grade 3, DL7): 1
- GGT increased, patients (grade 3, DL7): 1
- Hypokalemia, patients (grade 3, DL7): 1
- Lymphopenia (Lymphocyte count decreased), patients (grade 3, DL7): 2
- Nausea, patients (grade 3, DL7): 1
- Aspartate aminotransferase increased, patients (grade 3, all DLs (n=35)): 1
- Dehydration, patients (grade 3, all DLs (n=35)): 1
- Febrile Neutropenia, patients (grade 3, all DLs (n=35)): 1
- GGT increased, patients (grade 3, all DLs (n=35)): 2
- Hypokalemia, patients (grade 3, all DLs (n=35)): 2
- Hypoxia, patients (grade 3, all DLs (n=35)): 1
- Lymphocyte count decreased, patients (grade 3, all DLs (n=35)): 7
- Nausea, patients (grade 3, all DLs (n=35)): 2
- Neutropenia, patients (grade 3, all DLs (n=35)): 1
- Leukopenia (White blood cell count decreased), patients (grade 4, DL6): 1
- Lymphopenia (Lymphocyte count decreased), patients (grade 4, DL6): 1
- Neutropenia, patients (grade 4, DL6): 1
- Lymphocyte count decreased, patients (grade 4, all DLs (n=35)): 1
- Neutropenia, patients (grade 4, all DLs (n=35)): 1
- White blood cell count decreased, patients (grade 4, all DLs (n=35)): 1
- Sudden death - NOS, patients (grade 5, DL7): 1
- Death considered possibly related to treatment (one patient, DL7): grade 5 sudden death – NOS; also recorded: died of a pulmonary embolism
